Experimental data reported in ChEMBL document CHEMBL3407435, “N-Methyl-N-((1-methyl-5-(3-(1-(2-methylbenzyl)piperidin-4-yl)propoxy)-1H-indol-2-yl)methyl)prop-2-yn-1-amine, a new cholinesterase and monoamine oxidase dual inhibitor” (J Med Chem, 2014).
Activity calls are given as the source filed them. The calls are words filed in the database; no cut-off is given here.

How the values were obtained:
[1] = target: T1, Cholinesterase (Homo sapiens, UniProt P06276); assay: Inhibition of recombinant human BuChE expressed in HEK293 cells preincubated for 15 mins; type: cell-based
T1 sequence (P06276 whole entry): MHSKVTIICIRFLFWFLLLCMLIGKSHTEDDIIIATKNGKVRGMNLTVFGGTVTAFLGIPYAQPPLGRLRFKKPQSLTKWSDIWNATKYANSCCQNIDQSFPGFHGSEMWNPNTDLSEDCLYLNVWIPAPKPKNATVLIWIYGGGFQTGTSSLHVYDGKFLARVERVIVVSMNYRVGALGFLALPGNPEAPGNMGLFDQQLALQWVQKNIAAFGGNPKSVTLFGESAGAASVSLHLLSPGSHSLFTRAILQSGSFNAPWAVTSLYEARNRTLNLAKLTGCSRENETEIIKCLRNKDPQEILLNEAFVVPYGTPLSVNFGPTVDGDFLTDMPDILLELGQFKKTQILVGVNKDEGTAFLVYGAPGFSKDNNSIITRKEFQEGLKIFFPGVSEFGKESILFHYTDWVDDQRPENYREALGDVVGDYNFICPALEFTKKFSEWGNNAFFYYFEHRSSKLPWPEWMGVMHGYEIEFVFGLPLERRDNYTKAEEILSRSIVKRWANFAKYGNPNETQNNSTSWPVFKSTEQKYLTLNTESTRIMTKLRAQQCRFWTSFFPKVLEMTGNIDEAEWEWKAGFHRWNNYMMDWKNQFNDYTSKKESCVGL

[2] = target: T2, Acetylcholinesterase (Homo sapiens, UniProt P22303); assay: Inhibition of recombinant human AChE expressed in HEK293 cells preincubated for 15 mins; type: cell-based
T2 sequence (P22303 whole entry): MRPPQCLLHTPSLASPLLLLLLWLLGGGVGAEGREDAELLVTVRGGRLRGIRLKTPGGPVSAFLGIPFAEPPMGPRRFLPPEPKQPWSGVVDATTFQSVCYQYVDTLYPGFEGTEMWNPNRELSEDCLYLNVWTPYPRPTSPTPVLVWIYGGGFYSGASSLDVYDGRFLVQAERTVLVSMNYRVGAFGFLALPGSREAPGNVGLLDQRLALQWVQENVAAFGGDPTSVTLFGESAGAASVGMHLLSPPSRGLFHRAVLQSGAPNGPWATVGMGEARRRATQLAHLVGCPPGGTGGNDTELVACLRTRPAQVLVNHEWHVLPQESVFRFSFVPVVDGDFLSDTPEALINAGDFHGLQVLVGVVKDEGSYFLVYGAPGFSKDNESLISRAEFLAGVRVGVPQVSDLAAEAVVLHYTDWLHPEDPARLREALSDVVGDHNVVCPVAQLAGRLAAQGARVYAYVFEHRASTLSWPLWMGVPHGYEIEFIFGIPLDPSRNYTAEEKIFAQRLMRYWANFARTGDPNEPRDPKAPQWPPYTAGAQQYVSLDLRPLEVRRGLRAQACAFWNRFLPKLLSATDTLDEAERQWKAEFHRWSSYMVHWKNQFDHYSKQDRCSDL

[3] = target: T3, Amine oxidase [flavin-containing] B (Homo sapiens, UniProt P27338); assay: Inhibition of human MAO-B expressed in baculovirus infected BTI insect cells preincubated for 15 mins; type: cell-based
T3 sequence (P27338 whole entry): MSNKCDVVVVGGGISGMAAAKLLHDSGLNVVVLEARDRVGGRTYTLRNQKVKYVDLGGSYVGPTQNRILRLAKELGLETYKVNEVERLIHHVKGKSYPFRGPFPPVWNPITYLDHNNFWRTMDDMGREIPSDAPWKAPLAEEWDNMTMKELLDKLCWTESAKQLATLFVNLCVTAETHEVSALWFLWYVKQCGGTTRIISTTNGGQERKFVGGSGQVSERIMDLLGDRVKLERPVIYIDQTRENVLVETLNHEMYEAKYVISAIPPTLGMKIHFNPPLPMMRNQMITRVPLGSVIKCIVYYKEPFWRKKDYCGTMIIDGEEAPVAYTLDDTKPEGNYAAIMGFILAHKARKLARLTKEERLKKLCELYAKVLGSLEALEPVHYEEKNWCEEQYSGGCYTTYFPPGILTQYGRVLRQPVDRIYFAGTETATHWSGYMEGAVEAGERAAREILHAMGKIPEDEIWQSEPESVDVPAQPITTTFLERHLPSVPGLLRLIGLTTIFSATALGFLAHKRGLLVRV

[4] = target: T4, Amine oxidase [flavin-containing] A (Homo sapiens, UniProt P21397); assay: Inhibition of human MAO-A expressed in baculovirus infected BTI insect cells preincubated for 15 mins
T4 sequence (P21397 whole entry): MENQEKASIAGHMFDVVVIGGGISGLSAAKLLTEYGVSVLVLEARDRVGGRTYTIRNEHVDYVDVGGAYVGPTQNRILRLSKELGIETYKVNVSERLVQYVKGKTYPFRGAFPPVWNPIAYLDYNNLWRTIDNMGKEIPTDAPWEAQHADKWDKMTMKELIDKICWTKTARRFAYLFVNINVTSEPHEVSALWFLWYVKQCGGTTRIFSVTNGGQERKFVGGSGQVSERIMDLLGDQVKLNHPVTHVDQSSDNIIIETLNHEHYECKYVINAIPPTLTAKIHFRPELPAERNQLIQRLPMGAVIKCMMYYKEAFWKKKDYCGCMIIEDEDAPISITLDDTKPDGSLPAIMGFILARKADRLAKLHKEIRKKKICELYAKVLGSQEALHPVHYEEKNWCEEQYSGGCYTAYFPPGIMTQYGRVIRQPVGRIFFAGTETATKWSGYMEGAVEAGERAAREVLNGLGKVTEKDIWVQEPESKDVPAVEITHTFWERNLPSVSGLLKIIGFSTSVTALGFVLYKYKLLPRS

[5] = system: HEK293; assay: Selectivity ratio of IC50 for recombinant human AChE expressed in HEK293 cells to IC50 for recombinant human BuChE expressed in HEK293 cells; type: cell-based
[6] = species on record: Homo sapiens; assay: Selectivity ratio of IC50 for human MAO-A expressed in baculovirus infected BTI insect cells to IC50 for human MAO-B expressed in baculovirus infected BTI insect cells
[7] = target: T3, Amine oxidase [flavin-containing] B; assay: Inhibition of human MAO-B expressed in baculovirus infected BTI insect cells preincubated at 100 uM for 15 mins
[8] = target: T4, Amine oxidase [flavin-containing] A; assay: Inhibition of human MAO-A expressed in baculovirus infected BTI insect cells preincubated at 100 uM for 15 mins
[9] = target: T1, Cholinesterase; assay: Inhibition of recombinant human BuChE expressed in HEK293 cells preincubated at 100 uM for 15 mins; type: cell-based
[10] = target: T2, Acetylcholinesterase; assay: Inhibition of recombinant human AChE expressed in HEK293 cells assessed as enzyme recovery compound incubated at 10 times IC50 for 30 mins followed by 100 fold dilution relative to control; type: cell-based; design: scale not given: the % may be the effect or the level left
[11] = Permeability of the compound by PAMPA-BBB method in presence of PBS:ethanol at 70:30 ratio; type: ADME; conditions: read-out: permeability
[12] = target: T1, Cholinesterase; assay: Inhibition of recombinant human BuChE expressed in HEK293 cells assessed as enzyme recovery compound incubated at 10 times IC50 for 30 mins followed by 100 fold dilution relative to control; type: cell-based; design: scale not given: the % may be the effect or the level left
[13] = target: T3, Amine oxidase [flavin-containing] B; assay: Irreversible inhibition of human MAO-B expressed in baculovirus infected BTI insect cells compound incubated at 10 times IC50 for 30 mins followed by 100 fold dilution relative to control; conditions: 0.5 h
[14] = target: T4, Amine oxidase [flavin-containing] A; assay: Reversible inhibition of human MAO-A expressed in baculovirus infected BTI insect cells
[15] = target: T4, Amine oxidase [flavin-containing] A; assay: Irreversible inhibition of human MAO-A expressed in baculovirus infected BTI insect cells compound incubated at 10 times IC50 for 30 mins followed by 100 fold dilution relative to control; conditions: 0.5 h
[16] = target: T2, Acetylcholinesterase; assay: Inhibition of recombinant human AChE expressed in HEK293 cells preincubated at 100 uM for 15 mins; type: cell-based

**Q.** For `C#CCN(C)Cc1ccc(OC(=O)N(C)C)c2ncccc12`, which IC50 [1] is on record?
**A.** 7.9 µM

**Q.** And the IC50 [2]?
**A.** 0.52 µM

**Q.** With `C#CCNCc1cc2cc(OCCCC3CCN(Cc4ccccc4)CC3)ccc2[nH]1` as the compound, how does the IC50 [1] read?
**A.** 7.3 µM

**Q.** What about the IC50 [3] of the same compound?
**A.** 33.6 µM

**Q.** What about the IC50 [4] of the same compound?
**A.** 19.2 µM

**Q.** And the Ratio IC50 [5]?
**A.** 0.67

**Q.** And the IC50 [2]?
**A.** 4.9 µM

**Q.** And the Ratio IC50 [6]?
**A.** 0.57

**Q.** For `C#CCN(C)Cc1cc2cc(OCCCC3CCN(Cc4ccc(OC)c5ncccc45)CC3)ccc2n1C`, which inhibition at 100 µM [7] is on record?
**A.** 40%

**Q.** And the IC50 [3]?
**A.** 7.9 µM

**Q.** What about the IC50 [4] of the same compound?
**A.** 10.3 µM

**Q.** And the inhibition at 100 µM [8]?
**A.** 40%

**Q.** What about the inhibition [9] of the same compound?
**A.** inactive

**Q.** What does the source list for `C#CCN(C)Cc1cc2cc(OCCCC3CCN(Cc4ccccc4C)CC3)ccc2n1C`?
**A.** Activity [10]: 20%; IC50 [1]: 4.9 µM; IC50 [3]: 0.184 µM; Papp [11]: 14.4 ×10⁻⁶ cm/s; Activity [12]: 20%; inhibition (INH) [13]: 90%; IC50 [14]: 6.3 µM; IC50 [2]: 2.8 µM; inhibition (INH) [15]: 90%; Ratio IC50 [6]: 0.03

**Q.** Which results are given for `CCOC(=O)c1cc2cc(OCCCC3CCN(Cc4ccccc4)CC3)ccc2[nH]1`?
**A.** IC50 [1]: 9.7 µM; IC50 [3]: 1 µM; IC50 [4]: 0.877 µM; Ratio IC50 [5]: 0.99; IC50 [2]: 9.6 µM; Ratio IC50 [6]: 0.87

**Q.** Which IC50 [1] does the source give for `OCc1cc2cc(OCCCC3CCN(Cc4ccccc4)CC3)ccc2[nH]1` here?
**A.** 31.2 µM

**Q.** What about the IC50 [3] of the same compound?
**A.** 13.5 µM

**Q.** And the IC50 [4]?
**A.** 9.1 µM

**Q.** And the Ratio IC50 [5]?
**A.** 0.43

**Q.** And the IC50 [2]?
**A.** 13.6 µM

**Q.** And the Ratio IC50 [6]?
**A.** 0.67

**Q.** Which inhibition [16] does the source give for `C#CCN(C)Cc1cc2cc(OCc3ccc(OC(=O)N(C)C)c4ncccc34)ccc2n1C` here?
**A.** inactive

**Q.** And the IC50 [3]?
**A.** 273 µM

**Q.** What about the IC50 [4] of the same compound?
**A.** 311 µM

**Q.** And the inhibition [9]?
**A.** inactive

**Q.** Which IC50 [1] does the source give for `C#CCN(C)Cc1cc2cc(OCCCC3CCN(Cc4ccccc4)CC3)ccc2n1C` here?
**A.** 3.3 µM

**Q.** What about the IC50 [3] of the same compound?
**A.** 1.2 µM

**Q.** And the IC50 [4]?
**A.** 0.0582 µM

**Q.** What about the Ratio IC50 [5] of the same compound?
**A.** 1.03

**Q.** And the IC50 [2]?
**A.** 3.4 µM

**Q.** And the Ratio IC50 [6]?
**A.** 0.05

**Q.** For `C#CCNCc1cc2cc(OCc3ccccc3)ccc2[nH]1`, which IC50 [3] is on record?
**A.** 0.0041 µM

**Q.** What about the IC50 [4] of the same compound?
**A.** 0.287 µM

**Q.** And the Ratio IC50 [6]?
**A.** 70

**Q.** For `C=CCNCc1cc2cc(OCCCC3CCN(Cc4ccccc4)CC3)ccc2[nH]1`, which IC50 [1] is on record?
**A.** 40.6 µM

**Q.** What about the IC50 [3] of the same compound?
**A.** 21.3 µM

**Q.** And the IC50 [4]?
**A.** 45.3 µM

**Q.** What about the Ratio IC50 [5] of the same compound?
**A.** 0.11

**Q.** And the IC50 [2]?
**A.** 4.6 µM

**Q.** And the Ratio IC50 [6]?
**A.** 2.1

**Q.** Which results are given for `C#CCN(C)Cc1cc2cc(OCc3ccc(OC)c4ncccc34)ccc2[nH]1`?
**A.** inhibition [16]: inactive; IC50 [3]: 165 µM; IC50 [4]: 630 µM; inhibition [9]: inactive

**Q.** For `C#CCN(C)Cc1cc2cc(OCCCC3CCN(Cc4ccc(OC(=O)N(C)C)c5ncccc45)CC3)ccc2n1C`, which IC50 [1] is on record?
**A.** 5.9 µM

**Q.** And the IC50 [3]?
**A.** 0.196 µM

**Q.** What about the IC50 [4] of the same compound?
**A.** 0.258 µM

**Q.** What about the Ratio IC50 [5] of the same compound?
**A.** 1.4

**Q.** And the IC50 [2]?
**A.** 8.4 µM

**Q.** And the Ratio IC50 [6]?
**A.** 1.3

**Q.** Which IC50 [1] does the source give for `C#CCN(C)Cc1cc2cc(OCCCC3CCN(Cc4ccccc4)CC3)ccc2[nH]1` here?
**A.** 7.1 µM

**Q.** And the IC50 [3]?
**A.** 35.1 µM

**Q.** What about the IC50 [4] of the same compound?
**A.** 9.1 µM

**Q.** And the Ratio IC50 [5]?
**A.** 2.2

**Q.** And the IC50 [2]?
**A.** 15.4 µM

**Q.** And the Ratio IC50 [6]?
**A.** 0.26
